Measured values from patent US20220354894A1, “Cell Composition Comprising Radiolabled Mesenchymal Stem Cells, Use Thereof and Method for Preparing Radiolabeled Mesenchymal Stem Cells” (Boehringer Ingelheim Veterinary Medicine Belgium, priority 2019, published 2022).

Assay: Planar scintigraphy biodistribution after IV injection in healthy horses (Example 6)
Format: in vivo
Details: horse
Source text: Four healthy adult horses (2 neutered male and 2 female horses, 7 to 19 years old) from two different breeds (2 Belgian warmblood and 2 French Trotter) were included in this study. All animals underwent a full veterinary examination before being included in the study and were stalled at least 2 days prior to the start of the study. During the study, the animals were housed in individual stables of 3.5 by 4 (L×W) according to normal housing procedures with water ad libitum and hay twice a day. During the study, a daily general clinical examination was performed (day 0-3). All horses received a total of two IV injections; the first consisted of free ^99mTc dissolved in DMEM which served as control. The second injection was administered three days later and consisted of ^99mTc-labelled ePB-MSC.
For the IV injections of the horses, a 18 G catheter was placed in the left jugular vein of each horse and sedation was achieved using detomidine hydrochloride (Domidine 10 mg/mL; Dechra, The Netherlands) 0.01 mg/kg body weight and butorphanol tartrate (butomidor 10 mg/mL; AST farma BV, Oudewater, Germany) 0.01 mg/kg body weight IV When required, detomidine hydrochloride (Domidine 10 mg/mL; Dechra) was added during the scan with a maximum of 0.002 mg/kg. The horses stood straight with all four limbs using a table to stabilize the head. On day 0, all four horses were IV injected with free ^99mTc dissolved in DMEM. Consequently, on day 3, all horses were IV injected with ^99mTc-labelled ePB-MSCs dissolved in DMEM as described above. Planar scintigraphy was performed 1 h and 6 h post-injection for both injections using a gamma camera (Equine HR, Medical Imaging Electronics) (matrix: 128×128; acquisition time: 60 seconds per time frame (60 frames); collimator: low energy high resolution (140 KeV, 15% symmetrical window); field of view: 600×410 mm). Following body parts were scanned: head, thorax and abdomen starting with the head, left thorax and left abdomen and continuing with the right abdomen and right thorax.
Distribution of the ^99mTc labelled ePB-MSCs and free ^99mTc was subjectively assessed through the whole body using Multimodality software (Nuclear diagnostics, Sweden). Different organs of interests were manually delineated for each horse at each time point: the lungs, bladder, stomach, kidney, parotid gland and thyroid. Radioactive counts per pixel were calculated for each organ of interest, decay corrected and divided by the initial injected radioactivity in the whole body to obtain a relative uptake value.

With `[O]=[99Tc](=[O])(=[O])[O-]` [control product, ^99mTc Pertechnetate] the “radioactivity in the intestines” value was “small activity”, the “accumulation in the kidneys” value (1 h and 6 h post-injection) was “no kidney accumulation” and the “accumulation in the stomach” value (1 h and 6 h post-injection) was “High accumulation”. The “radioactivity in the bladder” value (1 h and 6 h post-injection) was “accumulation was higher”, the “uptake in the lungs” value (1 h and 6 h post-injection) was “distinct radioactive uptake” and the “uptake in the parotid glands” value (1 h and 6 h post-injection) was “high uptake”. The “uptake in the thyroid gland” value (1 h and 6 h post-injection) was “very high accumulation” and the “organs in which accumulation was predominantly observed” value (1 h post-injection scans) was “stomach, thyroid, bladder and parotid glands”.
